In patent US9463174B2, “Pharmaceutical composition for the treatment of type-1 diabetes” (priority 2008, dated 2016):
“Also recorded” adds a separate entry of the source.

How the values were obtained:
[1] = test system: established diabetic MLDS-mice; assay: Reversal of well established diabetes in MLDS-mice by daily GABA injection; format: in vivo
Experimental: To investigate if GABA can reverse diabetes, daily GABA injection was started in well established diabetes in MLDS-mice (blood glucose>30 mM).
(§1) The techniques used for the in vivo and in vitro studies in this embodiment of the disclosure are also described. CD1 mice (Charles River Laboratories, St Constant, Canada), NOD mice and transgenic TCR NOD mice (Jackson Laboratory, USA) were housed under a controlled temperature and a 12-h light/12-h dark cycle in the St. Michael's Hospital Animal facility with free access to food (normal rodent chow) and water, except where noted. All procedures were conducted according to protocols and guidelines approved by the Canadian Council of Animal Care and the St. Michael's Hospital Animal Care committee. Mice were treated with GABA by daily intraperitoneal (i.p.) injection of 20·g GABA per mouse to reach ˜200 μM circulation concentration and PBS as control. The daily treatment is continuously conducted during 60-day experimental period. One wk after the GABA and PBS treatment, diabetes was induced in both groups by i.p.-injection of low-dose streptozotocin (STZ, Sigma Chemical Co., St. Louis, Mo. 40 mg/kg body weight) for 5 consecutive days. The development of hyperglycemia was monitored by measuring blood glucose from the tail vein every third day following STZ injections using an Ascensia ELITE® XL glucose meter. For some studies, overtly diabetic mice induced by STZ and without GABA treatment were divided into two groups: one group started receiving daily i.p. injection of 20·g GABA whereas other group received only PBS. The treatment was continued for 75 days. The handling of the NOD mice were similar to those CD1 mice except the STZ injection. The NOD mice have a susceptibility to spontaneous development of autoimmune T1D. The TCR transgenic 8.3-NOD mice have a markedly accelerated disease (J. Vergdaguer et al, 1997 J Exp Med. 186(10):1663-76).
(§2) Groups of mice were subject to a glucose tolerance test (IPGTT) before treatment (day 0), one, three, and five weeks after administration and the day prior termination. For IPGTT, mice were fasted overnight for 15 h, and were given 1.5 g glucose/kg body weight via i.p.-injection. Blood was drawn from the tail vein and blood glucose was measured at 0, 10, 20, 30, 60, 90, and 120 min after glucose administration.
Mice were housed in metabolic cages prior to initiation of GABA and PBS treatment and before termination of experiments. Food intake, water consumption and urine output were measured. To determine the fat distribution, three intra-abdominal fat pads retroperitoneal, mesenteric and epididymal were dissected and weighed. Subcutaneous fat was also analyzed.
(§3) Blood samples (200 μL) were collected from the saphenous vein at time as indicated and at the termination of experiments via cardiac puncture (1 mL) for measurement of insulin, glucagon, and cytokine profiles. Serum was collected by centrifugation and stored at −80° C. until use. Insulin and glucagon concentration in serum samples were determined using insulin ELISA kit (Crystal Chem., Chicago, Ill., USA) and glucagon RIA kit (Linco Research, St. Louis, Miss., USA). Circulating GLP-1 levels were determined using GLP-1 RIA kit (Linco Research, St. Louis, Miss., USA). Cytokine concentration in the serum samples was determined using kit Multiplex Bead-based Cytokine assay (BioRed, Canada).
Pancreas harvesting and tissue processing were performed as described previously (Wang Q, Brubaker P L 2002 Diabetologia. 45(9):1263-73). Briefly, after cardiac puncture under anesthesia, a midlaparotomy was performed and the pancreas was immediately dissected from surrounding tissues, cleared of fat and lymph nodes, blotted, weighed, and placed in a formaldehyde-acetic acid solution. The procedure from completion of cardiac puncture to placement of tissue in fixative was completed within 5 min. After overnight fixation, the pancreas was washed in cold running water, cut into 10-12 segments. […]

[2] = test system: NOD mice; assay: Prevention of diabetes in non-obese diabetic (NOD) mice, GABA daily injections from age of 5 week; format: in vivo
Experimental: To examine the role of GABA in the development of diabetes in NOD mice, GABA daily injections were started at age of 5 week and PBS injections as control. Islet immunohistochemistry was performed at their age of 13 wks before the onset of obvious diabetic hyperglucemia. […] It is noted that beyond this age, the blood glucose levels of saline-treated NOD mice were out of the scale of the measurement (red arrows FIG. 6F). These non-treated NOD mice also developed impaired glucose tolerance (FIG. 6F, 6G), associated with reduced circulating C-peptide (FIG. 6H) and elevated circulating glucagon levels (FIG. 6I).
as §1, §2, §3
Following dewaxing, […] as described previously (Wang Q, Brubaker P L 2002 Diabetologia 45:1263-1273), endogenous peroxidase activity was quenched by incubating sections in 0.3% H2O2 in water for 30 min and antigen retrieval was performed by heating slides in 10 mM sodium citrate buffer, pH 6.0, at ˜70° C. for 30 min. […]

[3] = test system: INS-1 cells; assay: Insulin secretion from INS-1 cells; format: cell-based; conditions: dose dependent
[4] = test system: STC-1 cells; assay: GLP-1 production and secretion in gut-derived cells (GLP-1 RIA); format: cell-based
Experimental: In these in vitro assays using GLP-1-secreting and/or insulin-secreting cells, it was shown that the production and secretion of GLP-1 in the gut-derived cells (STC-1) were modulated by GABA, and the production and release of GABA from the beta-cells were also modulated by GLP-1. The specificity of these assays was determined by including the GABAAR antagonists or GLP-1 receptor antagonist in the assays.
Effects of GABA on stimulation of GLP-1 secretion from gut-derived cell lines. The production and secretion of GLP-1 in the gut-derived cells (STC-1) are examined by GLP-1 RIA. The time and dose dependent effects of GABA on GLP-1 production and secretion are examined in the gut cell lines in the presence of various concentration of GABA in which the specificity is determined by including the GABAAR antagonists in the assay.

[5] = day 74 after GABA daily administration
[6] = age of 13 wks, GABA-treated NOD mice

With `NCCCC(=O)O` [GABA, gamma-aminobutyric acid] the “glucose tolerance (IPGTT) at 7th days after GABA injections” value ([1]; 7th day) was “significantly improved; also recorded: improved glucose tolerance”, the “blood glucose / diabetic hyperglycemia, course” value ([1]; daily GABA started at blood glucose>30 mM) was “started to decline only a few days after GABA injection; also recorded: reverses MLDS-induced diabetic hyperglycemia; also recorded: completely reversed diabetic hyperglycemia” and the “blood glucose levels at day 74” value [1, 5] was “closed to the normal range”. For the same molecule, the “glucose tolerance at day 74” value [1, 5] was “almost identical to control normal mice; also recorded: improved glucose tolerance”, the “metabolic conditions (metabolic studies)” value ([1]; established diabetic MLDS mice) was “normalized metabolic conditions; also recorded: normalized metabolic status” and the “glucose tolerance at all time points examined” value ([1]; including two weeks and eight weeks after GABA injections) was “steadily improves glucose tolerance”. The islet morphology ([1]; islet histochemistry) was “almost normal islet morphology”, the “lymphocytes in the islets” value ([1]; islet histochemistry) was “few lymphocytes were seen” and the alpha-cell mass ([1]; vs non-treated MLDS-mice) was “reduced alpha-cell mass”. The beta-cell mass ([1]; vs non-treated MLDS-mice) was “significant enlarged beta-cell mass; also recorded: significantly restored beta-cell mass”, the circulating glucagon ([1]; vs non-treated MLDS-mice) was “reduced circulating glucagon levels” and the circulating insulin ([1]; vs non-treated MLDS-mice) was “elevated circulating insulin”. For the same molecule, the “ratio of insulin to glucagon” value ([1]; vs non-treated MLDS-mice) was “largely increased ratio of insulin to glucagon; also recorded: significantly increased”, the “beta-cell apoptosis (anti-caspase-3 islet histochemistry)” value ([2]; GABA-treated NOD mice) was “reduced” and the “circulating C-peptide” value ([2]; GABA-treated NOD mice) was “close to those measured at their earlier age; also recorded: significantly increased circulating C-peptide”. For the same molecule, the circulating glucagon levels ([2]; GABA-treated NOD mice) was “close to those measured at their earlier age; also recorded: reduced glucagon levels”, the glucose tolerance ([2]; GABA-treated NOD mice) was “close to normal glucose tolerance” and the “ratio of insulin to glucagon” value ([2]; GABA-treated NOD mice) was “significantly elevated the ratio of insulin to glucagon”. The “onset of diabetes / development of severe diabetic hyperglycemia” value ([2]; NOD mice) was “significantly prevented development of severe diabetic hyperglycemia; also recorded: prevents onset of diabetes”, the severe insulitis ([2]; age of 13 wks) was “no severe insulitis was seen” and the “islets areas occupied by lymphocytes in islets with relatively severe insulitis” value [2, 6] was 20-30%. The “islets with normal morphology without lymphocyte infiltration” value [2, 6] was greater than 70%, the “islets with relatively severe insulitis” value [2, 6] was “about 15%” and the blood glucose levels ([2]; at 18 wks of age, vs saline-treated NOD mice) was “kept lower blood glucose levels”. The “insulin secretion from INS-1 cells” value [3] was “stimulated insulin secretion; also recorded: dose-dependently increases insulin secretion” and the “production and secretion of GLP-1 in gut-derived cells (STC-1)” value [4] was “modulated”.
